“And” between values parts separate entries of the source, which are not always exact repeats. Equal entries are not always repeated. Where two headings read alike, the source gives them in different places.
Assays:
Type in all cases: cell-based
[1] = test system: HIV-1 replication in human PBM cells; test: microbe, parasite or virus in culture
Procedure: Cells and viruses. […] Antimicrobial Agents Chemother 1992;36(11): 2423-2431.
Cell pellets were washed, centrifuged, lysed and the proviral DNA extracted as previously described. Cytotoxicity of the compounds was determined using the Promega Cell Titer 96 dye uptake assay (Madison, Wis.) in 1-2 day PHA-stimulated PBM cells after 5 days in culture. The median effective concentration (EC50) and inhibitory concentration (IC50) were derived from the computer-generated median effect plot of the dose-effect data, as described previously.

[2] = test system: drug-resistant HIV-1 in PBMC; test: microbe, parasite or virus in culture; details: for EC50: Human immunodeficiency virus 1, PBMC, PBMC
[3] = test system: drug-resistant HIV-1 in MT-2; test: microbe, parasite or virus in culture; details: MT-2
[4] = test system: drug-resistant HIV-1 in MT-4; test: microbe, parasite or virus in culture
[5] = test system: drug-resistant HIV-1 in HeLa HT4-6C; test: microbe, parasite or virus in culture; details: Human immunodeficiency virus 1, HeLa
[6] = test system: recombinant HIV-1 virus isolates
From the text: The aim of the study was to determine the potency of the inhibitory effect of a new generation of NRTIs on Multi Drug Resistant isolates and to compare it with their effect on wild-type HIV-1 isolates. All recombinant viruses were taken from the VIRCO repository of phenotypically and genotypically characterized virus isolates. Hirsch et al. Antiretroviral Drug Resistance Testing in Adults with HIV Infection. JAMA; 1998: 79(24) 1984-1991. See also Pauwels et al. Comprehensive HIV drug Resistance monitoring using rapid, high-throughput phenotypic and genotypic assays with correlative data analysis. Antiviral Therapy, 1998: 3: 35 Abstract 51.
Phenotypic drug susceptibility determination of recombinant virus isolates is described in Hertogs et al. A Rapid Method for Simultaneous Detection of Phentypic Resistance to Inhibitors of Protease and Reverse Transcriptase in Recombinant HIV-1 Isolates from Patients Treated with Antiretroviral Drugs. Antimicrob. Agents Chemother. 1998; 42(2): 269-276. The basic principle of the Antivirogram® technology is the construction of chimeric HIV-1 strains composed of the protease (PR) and reverse transcriptase (RT) gene sequences which are isolated and amplified from patient viral RNA. Amplicons are subsequently transfected into CD4+T cells together with a standard laboratory isogenic (HXB2) HIV-1 DNA construct from which the PR/RT gene sequences were deleted. After homologous recombination, new viruses whose diversity reflects the original population amplified from the plasma are produced at high level from these cells.
The virus infectivity (CCID50) is determined by an end-point dilution method. The titer is calculated from the degree of infection, measured by the intensity of reporter-gene signal as generated by serial dilutions of the virus shock. The chimeric (clinical isolates and wild-type reference) viruses are then analyzed for their phenotypic sensitivity (i.e. susceptibility) to the different PR and RT-inhibitors in an automated reporter gene-based assay using serial dilutions of the compound. The standardisation of the Antivirogram®n assay allows for simultaneous testing of all clinically approved drugs in one 384-well microtiter plate. The experimental drugs are included in separate plates. Each plate contains multiple replicates of mock-infected wells, virus-infection control wells and blank (medium-only) well. All plates are tested in duplicate. 50% Inhibitory concentrations are calculated based on reporter signals obtained through optical reading of 384-well plates containing serial dilutions of compounds, a normalised quantity of virus and by taking into account all relevant control wells. Approval (or not) is done according to critical ranges and settings as described in the corresponding VIRCO Standard Operating Procedure.
A more detailed description of the protocol is as follows. Samples were stored frozen. […] To confirm the genotypic pattern, genotyping (ABI-sequencing) was performed after recombination and culture of the laboratory strains by analysis of cell viability, calculation of results (dose-response curves, IC50 values), and reporting of data.

[7] = Human immunodeficiency virus 1, PBMC, 144 h
[8] = clinical isolate (pre) prior to long-term ZDV monotherapy, row HIV-1 (A012D), read-out: Untreated EC50
[9] = clinical isolate HIV-1 (A012D:M41L?/D67N/K70R/T215F/K219Q), read-out: Selected Varient EC50

For `[N-]=[N+]=N[C@H]1C[C@H](n2ccc(=O)[nH]c2=O)O[C@@H]1CO` [CS-87, 3′-Azido-2′,3′-dideoxyuridine], the “m ± SE (slope of median effect plot)” value [1] was 1.62 ± 0.13 and 1.50 ± 0.33 and 1.01 ± 0.01, the inhibition at 10 µM [1, 7] was 34.5% and the inhibition at 100 µM [1, 7] was 32%. The inhibition at 1000 µM [1, 7] was 87.3%, the “fold change in EC50” value [2] was < 3 fold and the EC50 [2, 8] was 400 nM. For the same molecule, the EC50 [2, 9] was 16500 nM, the EC50 ([2]; molecular clone 1 (T215Y/M41L), read-out: Selected Varient EC50) was 2100 nM and the EC50 ([2]; molecular clone (M184V/T215Y), read-out: Selected Varient EC50) was 1100 nM. It also gave an EC50 ([2]; molecular clone HIV-1 (D67N/K70R/T215Y/K219Q), read-out: Selected Varient EC50) of 300 nM, an EC50 ([2]; molecular clone HIV-1 (K65R), read-out: Selected Varient EC50) of 1100 nM and an EC50 ([2]; molecular clone HIV-1 (L74V), read-out: Selected Varient EC50) of 600 nM. For the same molecule, the EC50 ([2]; molecular clone HIV-1 (M184V), read-out: Selected Varient EC50) was 600 nM, the EC50 ([2]; molecular clone HIV-1 (T215Y), read-out: Selected Varient EC50) was 300 nM and the EC50 ([2]; parent strain HIV-1 (xxLAI), row 1 (T215Y/M41L), read-out: Untreated EC50) was 1100 nM. For the same molecule, the EC50 ([2]; parent strain HIV-1 (xxLAI), row (M184V/T215Y), read-out: Untreated EC50) was 1100 nM, the EC50 ([2]; parent strain HIV-1 (xxLAI), row HIV-1 (D67N/K70R/T215Y/K219Q), read-out: Untreated EC50) was 1100 nM and the EC50 ([2]; parent strain HIV-1 (xxLAI), row HIV-1 (K65R), read-out: Untreated EC50) was 1100 nM. For the same molecule, the EC50 ([2]; parent strain HIV-1 (xxLAI), row HIV-1 (L74V), read-out: Untreated EC50) was 1100 nM, the EC50 ([2]; parent strain HIV-1 (xxLAI), row HIV-1 (M184V), read-out: Untreated EC50) was 1100 nM and the EC50 ([2]; parent strain HIV-1 (xxLAI), row HIV-1 (T215Y), read-out: Untreated EC50) was 1100 nM. The EC50 ([3]; Human immunodeficiency virus 1, MT2, molecular clone HIV-1 (D67N/K70R/M184V/T215Y/K219Q), read-out: Selected Varient EC50) was 53400 nM, the EC50 ([3]; Human immunodeficiency virus 1, MT2, molecular clone HIV-1 (D67N/K70R/T215Y/K219Q), read-out: Selected Varient EC50) was > 90000 nM and the EC50 ([3]; Human immunodeficiency virus 1, MT2, molecular clone HIV-1 (M41L/D67N/M184V/H208Y/L210W/R211K/L214F/T215Y), read-out: Selected Varient EC50) was 50200 nM. For the same molecule, the EC50 ([3]; Human immunodeficiency virus 1, MT2, molecular clone HlV-1 (M184V), read-out: Selected Varient EC50) was 16800 nM, the EC50 ([3]; Human immunodeficiency virus 1, MT2, parent strain HIV-1 (xxLAI), row HIV-1 (D67N/K70R/M184V/T215Y/K219Q), read-out: Untreated EC50) was 20000 nM and the EC50 ([3]; Human immunodeficiency virus 1, MT2, parent strain HIV-1 (xxLAI), row HIV-1 (D67N/K70R/T215Y/K219Q), read-out: Untreated EC50) was 20000 nM. It also gave an EC50 ([3]; Human immunodeficiency virus 1, MT2, parent strain HIV-1 (xxLAI), row HIV-1 (M41L/D67N/M184V/H208Y/L210W/R211K/L214F/T215Y), read-out: Untreated EC50) of 20000 nM, an EC50 ([3]; Human immunodeficiency virus 1, MT2, parent strain HIV-1 (xxLAI), row HlV-1 (M184V), read-out: Untreated EC50) of 20000 nM and an EC50 ([4]; Human immunodeficiency virus 1, MT4, clinical isolate (pre) prior to long-term ZDV monotherapy, row HIV-1 (A-161), read-out: Untreated EC50) of 600 nM. For the same molecule, the EC50 ([4]; Human immunodeficiency virus 1, MT4, clinical isolate (pre) prior to long-term ZDV monotherapy, row HIV-1 (C-246), read-out: Untreated EC50) was 600 nM, the EC50 ([4]; Human immunodeficiency virus 1, MT4, clinical isolate (pre) prior to long-term ZDV monotherapy, row HIV-1 (G-68), read-out: Untreated EC50) was 600 nM and the EC50 ([4]; Human immunodeficiency virus 1, MT4, clinical isolate (pre) prior to long-term ZDV monotherapy, row HIV-1 (R-102), read-out: Untreated EC50) was 600 nM. The EC50 ([4]; Human immunodeficiency virus 1, MT4, clinical isolate (pre) prior to long-term ZDV monotherapy, row HIV-1 (X-78), read-out: Untreated EC50) was 600 nM, the EC50 ([4]; Human immunodeficiency virus 1, MT4, clinical isolate HIV-1 (A-161), long-term ZDV monotherapy, read-out: Selected Varient EC50) was 8600 nM and the EC50 ([4]; Human immunodeficiency virus 1, MT4, clinical isolate HIV-1 (C-246), long-term ZDV monotherapy, read-out: Selected Varient EC50) was 10300 nM. It also gave an EC50 ([4]; Human immunodeficiency virus 1, MT4, clinical isolate HIV-1 (G-68), long-term ZDV monotherapy, read-out: Selected Varient EC50) of 500 nM, an EC50 ([4]; Human immunodeficiency virus 1, MT4, clinical isolate HIV-1 (R-102), long-term ZDV monotherapy, read-out: Selected Varient EC50) of 300 nM and an EC50 ([4]; Human immunodeficiency virus 1, MT4, clinical isolate HIV-1 (X-78), long-term ZDV monotherapy, read-out: Selected Varient EC50) of 500 nM. It also gave an EC50 [5, 8] of 400 nM, an EC50 ([5]; clinical isolate (pre) prior to long-term ZDV monotherapy, row HIV-1 (A018C), read-out: Untreated EC50) of 1000 nM and an EC50 ([5]; clinical isolate (pre) prior to long-term ZDV monotherapy, row HIV-1 (A036DD), read-out: Untreated EC50) of 600 nM. The EC50 ([5]; clinical isolate (pre) prior to long-term ZDV monotherapy, row HIV-1 (P022C), read-out: Untreated EC50) was 400 nM, the EC50 ([5]; clinical isolate (pre) prior to long-term ZDV monotherapy, row HIV-1 (P026B), read-out: Untreated EC50) was 400 nM and the EC50 [5, 9] was 89000 nM. The EC50 ([5]; clinical isolate HIV-1 (A018C:D67N/K70R/T215Y/K219Q), read-out: Selected Varient EC50) was 50000 nM, the EC50 ([5]; clinical isolate HIV-1 (A036DD:M41L/D67N/K70R/T215Y), read-out: Selected Varient EC50) was 56000 nM and the EC50 ([5]; clinical isolate HIV-1 (P022C:M41L?/D67N/K70R/T215F/K219Q), read-out: Selected Varient EC50) was 40000 nM. For the same molecule, the EC50 ([5]; clinical isolate HIV-1 (P026B:M41L?/D67N/K70R/T215Y), read-out: Selected Varient EC50) was 100000 nM, the “activity against multiple-drug resistant forms of HIV” value [6] was “active” and the “susceptibility of multiple dideoxynucleoside resistant viruses” value [6] was “resistant”.

Source: US6602664B2 (priority 1998, dated 2003)
